In PubChem BioAssay AID1963851 (Molecular Pharmacology Branch, DTP, NCI, 2024) one finds viability, T/C and IC50 data, which are given here for ten compounds.

Structures are written as SMILES. “And” between values parts separate entries of the source, which are not always exact repeats. Equal values may be shown once.

The viability, T/C is the ratio of treated to control. In general, IC50 refers to the concentration that gives 50% inhibition.

The assay has as its system 188146-221-R-J1-PDC complex spheroid viability. Description: Anticancer human tumor 188146-221-R-J1-PDC patient-derived colon adenocarcinoma cell line growth inhibition [POLQ]. As to conditions: for viability, T/C: stronger effect = lower value. Here is the method: Multicellular complex tumor spheroid response to Polymerase (POL) inhibitors (novobiocin, ART-558, RP6685) in combination with a variety of drugs and investigational agents in selected tumor cell lines
The POL inhibitors (novobiocin, ART-558, and RP6685) were evaluated both individually and in combination with standard of care and investigational anticancer small molecules within a complex spheroid model of solid tumors. . Complex spheroids include a stromal component modeled by human endothelial cells (HUVEC) and fibroblasts modeled by human mesenchymal stem cells (MSCs). The concentration ranges selected for each drug and investigational agent were based upon clinically achievable concentrations if the clinical Cmax of the agent was known.
Compounds. The drugs and investigational agents: novobiocin (NSC847541), ART-558 (NSC835418), RP-6685 (NSC848927), peposertib (NSC802822), ceralasertib (NSC780249), elimusertib (NSC800525), camonsertib (NSC841442), AZD-1390 (NSC803789), olaparib (NSC753686), talazoparib (NSC767125), rucaparib (NSC756644), sotorasib (NSC818433), MRTX-1133 (NSC836407), SN-38 (NSC673596), topotecan (NSC609699), epotoside (NSC141540), doxorubicin (NSC123127), gemcitabine (NSC613327), 5-fluorouracil (NSC19893), paclitaxel (NSC125973), vemurafenib (NSC761431), MSA-2 (NSC828583), SN-011 (NSC837082), adavosertib (NSC754352), prexasertib (NSC758257), carboplatin (NSC241240) and oxaliplatin (NSC266046), were obtained from the National Cancer Institute (NCI) Developmental Therapeutics Program Chemical Repository (21). The FDA-approved anticancer drug set is available from the Developmental Therapeutics Program at https://dtp.cancer.gov/organization/dscb/obtaining/. […] The stock solutions were prepared in dimethyl sulfoxide (DMSO, Sigma-Aldrich, St. Louis, MO, cat. D2650), except for the platinum compounds which were prepared in saline (Quality Biological, Gaithersburg, MD, cat. 114-055-101), at 800-fold the tested concentration and stored at -70 degrees C prior to their use. All drugs and investigational agents were tested over a range starting from a high concentration at or near the clinical Cmax and decreasing in half-log increments. If the clinical Cmax for an agent had not been determined, the highest concentration tested was 10 microM, except for SN-38, which was tested at a high concentration of 1 microM.
Cell Culture. All cells were maintained in an incubator at 37 degrees C and 5% CO2 with 95% humidity. The PDC lines were cultured according to standard operating procedures established by the NCI PDMR (https://pdmr.cancer.gov). Table 3 of the manuscript, lists the cell lines along with the number of the three cell types plated to form the mct-spheroids and media for tumor cell growth. After thawing, all PDC lines, except 997537-175-T-J1-PDC and 415267-285-R-J2-PDC, were cultured in Matrigel-coated flasks prepared with a working solution of 1X Ham's F-12 nutrient mix, without supplementation (Thermo Fisher Scientific, cat. 11765054), 100 U/mL penicillin-streptomycin (Thermo Fisher Scientific, cat. 15140122), and 2.5% Matrigel (Corning Inc., Corning, NY, cat. 354248) for the first three passages. The two PDC lines 997537-175-T-J1-PDC and 415267-285-R-J2-PDC were cultured on uncoated flasks. The 857933-349-R-J2-PDC line was cultured in 6C/Colon 1B media containing advanced DMEM/F-12 (Thermo Fisher Scientific, cat. 12634028), 10 mM HEPES (Thermo Fisher Scientific, cat. 15630080), 1X GlutaMAX supplement (Thermo Fisher Scientific, cat. 35050061), 0.1 mg/mL primocin (InvivoGen, San Diego, CA, cat. ant-pm-2), 10% defined fetal bovine serum, heat inactivated (HyClone Laboratories Inc., Logan, UT, cat. SH30070.03HI), 50% L-WRN conditioned media (ATCC, cat. CRL-3276), 1.25 mM N-Acetyl-L-cysteine (Sigma-Aldrich, cat. A9165), 10 mM nicotinamide (Sigma-Aldrich, cat. N0636), 1X B-27 supplement (Thermo Fisher Scientific, cat. 17504044), 1X N-2 supplement (Thermo Fisher Scientific, cat. […]
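Note: spheroids exposed to compounds for seven days.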

Regarding `COC1C(OC(N)=O)C(O)C(Oc2ccc3c(O)c(NC(=O)c4ccc(O)c(CC=C(C)C)c4)c(=O)oc3c2C)OC1(C)C` (centres undefined), the viability, T/C is 103% [middle of 12 runs] (compound 0.0316 µM); 102% [middle of 13 runs] (compound 0.316 µM); 105% [middle of 13 runs] (compound 1 µM); 107% [middle of 13 runs] (compound 3.16 µM); 108% [middle of 13 runs] (compound 10 µM). In addition, for the setting “compound alone, run of 10/31/2023”, the half-maximal inhibitory concentration (IC50) was over 10000 nM.
In the case of `COc1cc(C2c3cc4c(cc3C(OC3OC5COC(C)OC5C(O)C3O)C3COC(=O)C23)OCO4)cc(OC)c1O` (centres undefined), the viability, T/C (compound 0.0316 µM) is 115% and 92.4% and 98.7%; the viability, T/C (compound 0.1 µM) is 102% and 84.8% and 107%; the viability, T/C (compound 0.316 µM) was 77% and 71.8% and 65.6%; the viability, T/C (compound 1 µM) is 51.8% and 43.3% and 50.5%; the viability, T/C (compound 3.16 µM) was 30.1% and 27.2% and 24.4%; the viability, T/C (compound 10 µM) is 23.1% and 24.8% and 25%. Also, for the setting “curve of compound”, the IC50 is 1030 nM and 758 nM and 789 nM.
With `COc1ccc([C@@H](O)c2cc(-c3ncnc4cc(N5CCOCC5)ccc34)c(F)cc2Cl)nn1`, the viability, T/C runs as follows: (compound 0.0316 µM) 102% and 91.7% and 100%; (compound 0.1 µM) 101% and 92.3% and 96.1%; (compound 0.316 µM) 90.7% and 97.8% and 96.1%; (compound 1 µM) 90.2% and 101% and 91.3%; (compound 3.16 µM) 68.4% and 78.3% and 67.7%; (compound 10 µM) 32.3% and 39.1% and 29.9%. The IC50 (curve of compound) is 5750 nM and 7260 nM and 5430 nM.
For `COc1cccc(OCCCN)c1-c1cc(Nc2cnc(C#N)cn2)n[nH]1`, the viability, T/C was 97.7% and 99% and 88.2% (compound 0.00316 µM); 88.1% and 99.5% and 101% (compound 0.01 µM); 42.7% and 75.8% and 72.2% (compound 0.0316 µM); 20.7% and 37.1% and 32.8% (compound 0.1 µM); 12.7% and 16.1% and 16.8% (compound 0.316 µM); 9.17% and 13% (2×) (compound 1 µM). Also, the concentration for half-maximal inhibition (IC50) (curve of compound) was 27.2 nM and 68 nM and 61.2 nM.
Turning to `COc1cccc2c1C(=O)c1c(O)c3c(c(O)c1C2=O)CC(O)(C(=O)CO)CC3OC1CC(N)C(O)C(C)O1` (centres undefined), the viability, T/C runs as follows: (compound 0.0316 µM) 78% and 71.8% and 78.2%; (compound 0.1 µM) 60.5% and 38.2% and 54.6%; (compound 0.316 µM) 32.8% and 29.6% and 32.9%; (compound 1 µM) 8.2% and 10% and 11.1%; (compound 3.16 µM) 1.38% and 0.34% and 0.33%; (compound 10 µM) 0.57% and 0.47% and 0.49%. In addition, the half-maximal inhibitory concentration (IC50) (curve of compound) is 155 nM and 73.6 nM and 132 nM.
Regarding `Cn1ncnc1[C@H]1c2n[nH]c(=O)c3cc(F)cc(c23)N[C@@H]1c1ccc(F)cc1`, the viability, T/C is, setting by setting: (compound 0.000316 µM) 102% and 97.5% and 109%; (compound 0.001 µM) 112% and 93.3% and 103%; (compound 0.00316 µM) 89.9% and 107% and 95.2%; (compound 0.01 µM) 99.5% and 108% and 103%; (compound 0.0316 µM) 104% and 87% and 114%; (compound 0.1 µM) 95.4% and 95.5% and 82.1%. Also, the IC50 (curve of compound) was over 100 nM.
Take `Nc1ccc(C#CCN(C(=O)Cc2ncc(C(F)(F)F)cc2C(F)(F)F)c2ccc(F)cc2)nn1`: the viability, T/C is 94.8% [middle of 12 runs] (compound 0.0316 µM); 99.1% [middle of 13 runs] (compound 0.1 µM); 105% [middle of 13 runs] (compound 0.316 µM); 102% [middle of 13 runs] (compound 1 µM); 101% [middle of 12 runs] (compound 3.16 µM); 108% [middle of 13 runs] (compound 10 µM). Also, the 50% inhibitory concentration (IC50) (compound alone, run of 11/06/2023) was over 10000 nM.
On to `Nc1ccn(C2OC(CO)C(O)C2(F)F)c(=O)n1` (centres undefined), for which the viability, T/C runs as follows: (compound 0.0316 µM) 27.1% and 27.6% and 53.7%; (compound 0.1 µM) 17.8% and 15.8% and 24.2%; (compound 0.316 µM) 13.2% and 15.2% and 14.9%; (compound 1 µM) 16.1% and 16.9% and 13.9%; (compound 3.16 µM) 15.9% and 19.2% and 16.6%; (compound 10 µM) 10.9% (2×) and 15.4%. The IC50 (curve of compound) is < 31.6 nM and 36.4 nM.
With `O=C(c1cc(Cc2n[nH]c(=O)c3ccccc23)ccc1F)N1CCN(C(=O)C2CC2)CC1`, the viability, T/C reads like this: (compound 0.0316 µM) 95.8% and 103% and 101%; (compound 0.1 µM) 105% and 101% and 97%; (compound 0.316 µM) 89.8% and 97.6% and 92.6%; (compound 1 µM) 90.3% and 81.9% and 108%; (compound 3.16 µM) 104% and 95.4% and 97.6%; (compound 10 µM) 73.3% and 74% and 74.6%. Besides, the IC50 (curve of compound) was over 10000 nM.
As to `O=c1[nH]cc(F)c(=O)[nH]1`, the viability, T/C runs as follows: (compound 0.0316 µM) 102% and 101% and 107%; (compound 0.1 µM) 95.6% and 97.8% and 103%; (compound 0.316 µM) 66.6% and 74% and 69.3%; (compound 1 µM) 59.6% and 61.5% and 58.3%; (compound 3.16 µM) 44.9% and 51.3% and 45.6%; (compound 10 µM) 31.6% and 43.5% and 31.8%. Besides, for the setting “curve of compound”, the 50% inhibitory concentration (IC50) was 1830 nM and 3020 nM and 1680 nM.
